Reference: US20250241890A1, “1,4-DIUREAS AND 1,4-DITHIOUREAS AND USES THEREOF” (Purdue Research Foundation, priority 2024, published 2025)

Molecular target: T1, α-synuclein (α-syn) (Homo sapiens, UniProt P37840)
T1 construct: purchased rPeptide (Watkinsville, GA)
Experiment: Thioflavin T (ThT) fluorescence assay of α-syn fibril formation
Type: biochemical
Settings: for remaining activity at 100 µM: α-syn 2 μM final concentration, compounds at 100 μM, average of three replicates with SEM, read-out: % ThT intensity (100 μM), maximum ThT intensity in percentage
Method: Chemical and peptide source. Dimethylsulfoxide (DMSO) and thioflavin-T (ThT) were purchased from Alfa Aesar (Ward Hill, MA). Recombinant α-synuclein (α-syn) was procured from rPeptide (WatKinsville, GA). The recombinant p-tau isoform 1N4R was prepared as published previously (Fortin et al. 2021, Sui et al. 2015, Liu et al. 2020). Concerning the preparation of tau 0N4R, a bacterial expression plasmid consisting of the vector pET30a carrying a cDNA encoding the human Tau 0N4R isoform was a kind gift of Dr. Benjamin Wolozin (Boston University). E. coli stock (Rosetta BL21 E. coli (CamR) containing pET30a [0N4R tau wt] (KanR)) was grown in LB medium supplemented with kanamycin (50 μg/mL) and chloramphenicol (50 μg/mL). Protein over-expression was induced by the addition of 1 mM IPTG for ˜18 hours at 37° C., and cells were pelleted by centrifugation at 6,000 g for 15 minutes at 4° C. The cells were resuspended in lysis buffer (10 mM Hepes, pH 7.4, 50 mM NaCl, 1 mM MgCl2, 1 mM PMSF, 1× PIC, and 0.5 mM DTT) and lysed by sonication at 30 seconds “On” and 1 minute “Off” at ˜30-45% power for ˜3-5 minutes. Lysate was centrifuged at 10,000 rpm for 10 minutes at 4° C., and supernatant was transferred with 7.8 ml (total) of 3M NaCl. The lysate was incubated for 10 minutes in 80° C. water bath, then cooled for 10 minutes in an ice bath. The lysate was centrifuged at 10,000 rpm at 4° C. for 10 minutes, and the supernatant was transferred to a new tube. The supernatant was dialyzed overnight against cation exchange buffer (50 mM MES, […], 1 mM DTT, pH 6.0). The dialysate was loaded onto a HiPrep SP HP column, and proteins were eluted with a linear gradient ranging from 50 mM to 1 M NaCl. General Characterizations. ^1H and ^13C {1H} NMR spectra were recorded using a 500 MHz Bruker instrument working at a frequency of 500 MHz for ^1H and at 126 MHz for ^13C. Chemical shifts are reported in ppm using residual solvent resonances as internal reference (δ 2.50 and δ 39.51 for ^1H and ^13C in DMSO-d6, respectively). ^1H NMR data are reported as follows. b=broad, s=singlet, d=doublet, t=triplet, q=quartet, and m=multiplet. Coupling constants are given in hertz. The purity of all compounds and synthetic intermediates was judged to be 95% or better based on ^1H NMR. IR measurements were performed in a Nicolet FTIR as thin films in the Purdue Drug Discovery facility. High-resolution mass spectrometry analyses were conducted at the MSU Mass Spectrometry facility. Thioflavin fluorescence assays. […] The recombinant α-syn obtained from rPeptide has been validated with proper quality control to confirm the monomeric state of the protein. Kinetics of fibril formation have been performed using ThT as published previously.^6, 12, 13, 24 The fluorescence emission experiments were performed with the excitation and emission wavelengths set at 440 and 485 nm, respectively, with a Synergy HT multi-mode microplate reader (BioTek, Winooski, VT). Samples were measured in three replicates. Experiments were repeated three times using different α-syn stock solutions. For each time point, arbitrary units of fluorescence were calculated from the mean values normalized against the maximum value. The percentage of fluorescence intensity at the plateau phase in Table 1 was expressed as mean #SEM. Concerning the dose response curve depicted in FIG. 2, the data were plotted using GraphPad Prism. Photo-induced Cross-linking of Unmodified Proteins (PICUP) Assay. To induce oligomerization by cross-linking, α-syn (from Rpeptide, LLC) was diluted in 10 mM phosphate buffer (pH 7.4) to reach a final concentration of 50 μM. Different compounds were added to the protein solution at a final concentration of 50 μM, resulting in a molar ratio of 1:1. PICUP assays were performed with the following controls: samples without light exposition, without Ru(bpy) or ammonium persulfate, and without compound (i.e., 0.125% DMSO). […]

| remaining activity at 100 µM | EC50 (Log (agonist) vs. normalized response (variable slope), Prism, α-syn 6 μM, 47 hours, 12.5, 25, 50 and 100 μM, read-out: Log EC50 (dose response curve of α-syn fibrillation, ThT) (converted)) | dose-dependent reduction of α-syn fibrillation (ThT) (α-syn 6 μM, 47 hours, 12.5, 25, 50 and 100 μM) | Compound |
| --- | --- | --- | --- |
| 41.6% |  |  | S=C(Nc1ccc(NC(=S)Nc2cccc3cc[nH]c23)cc1)Nc1cccc2cc[nH]c12 [Compound 8, 3-(1H-indol-7-yl)-1-(4-{[(1H-indol-7-yl)carbamothioyl]amino}phenyl)thiourea] |
| 5.3% | 15.9 ± 2.8 µM |  | O=C(Nc1ccc(NC(=O)Nc2cccc3[nH]ccc23)cc1)Nc1cccc2[nH]ccc12 [Compound 1, 3-(1H-indol-4-yl)-1-(4-{[(1H-indol-4-yl)carbamoyl]amino}phenyl)urea] |
| 15.2% |  | dose-dependent reduction | S=C(Nc1ccc(NC(=S)Nc2cccc3[nH]ccc23)cc1)Nc1cccc2[nH]ccc12 [Compound 2, 3-(1H-indol-4-yl)-1-(4-{[(1H-indol-4-yl)carbamothioyl]amino}phenyl)thiourea] |
